The values below come from US20260317344A1, “EGFR INHIBITORS FOR TREATING DISEASE” (BLOSSOMHILL THERAPEUTICS, INC., priority 2023, published 2026).

Molecules are shown by their SMILES.

Assay [1] addresses EGFR (D770_N771insNPG) (Homo sapiens, UniProt P00533, INS770NPG). The experiment in a line: HotSpot radiometric kinase assay, inhibition of EGFR (D770_N771insNPG) mutant. Format: biochemical. Particulars: 33P ATP, room temperature, 120 m. The protocol:
(§1) Biochemical Assays for inhibition of wild-type and mutant EGFRs
(§2) Briefly, specific kinase/substrate pairs along with required cofactors were prepared in reaction buffer; 20 mM HEPES pH 7.5, 10 mM […], 1 mM EGTA, 0.02% Brij35, 0.02 mg/ml BSA, 0.1 mM Na3VO4, 2 mM DTT, 1% DMSO. Compounds were delivered into the reaction, followed ~20 minutes later by addition of a mixture of ATP (Sigma, St. Louis MO) and ^33P ATP (Perkin Elmer, Waltham MA) to a final concentration of […]. Reactions were carried out at room temperature for 120 m, followed by spotting of the reactions onto P81 ion exchange filter paper (Whatman Inc., Piscataway, NJ). Unbound phosphate was removed by extensive washing of filters in 0.75% phosphoric acid. […] IC50 values and curve fits were obtained using Prism (GraphPad Software).

In assay [2] the target is EGFR (L858R/T790M/C797S) (Homo sapiens, UniProt P00533, C797S/L858R/T790M). As to the kind of experiment: HotSpot radiometric kinase assay, inhibition of EGFR L858R/T790M/C797S mutant. Format: biochemical. Particulars: 33P ATP, room temperature, 120 m. The protocol:
as §1, §2

Assay [3] deals with EGFR (D746-750/C797S) (Homo sapiens, UniProt P00533, C797S/DEL746-750). The experiment in a line: HotSpot radiometric kinase assay, inhibition of EGFR 746-750/C797S mutant. Format: biochemical. Particulars: 33P ATP, room temperature, 120 m. The protocol:
as §1, §2

Assay [4] deals with EGFR (D746-750) (Homo sapiens, UniProt P00533, DEL746-750). As to the kind of experiment: HotSpot radiometric kinase assay, inhibition of EGFR 746-750 mutant. It counts as biochemical. Particulars: 33P ATP, room temperature, 120 m. The protocol: as §1, §2
For assay [5], the system named is HCC827 cells. The experiment in a line: 5-Day CellTiter Glo (CTG) cell proliferation assay, HCC827. Particulars: Homo sapiens; HCC827 cells (d746-750 EGFR), 5-day CTG proliferation, 120 hours; read-out: HCC827 IC50. Format: cell-based. The protocol: (§3) 5-Day CellTiter Glo (CTG) Cell Proliferation Assays (PC9, H1975, H827)
(§4) Cell proliferation assays were carried out in NSCLC cells with EGFR activation mutations. Both PC-9 cells and HCC827 cells (purchased from DSMZ) carry a Glu746-Ala750 deletion (d746-750) mutation in exon 19 of the EGFR gene and NCI-H1975 cells carry both L858R activation mutation and T790M gatekeeper mutation in the EGFR gene. One thousand PC-9, NCI-H1975 or HCC827 cells/100 μL per well were seeded in 96-well black plate with transparent bottom and then treated with indicated compounds in a 9-dose dilution series dispensed using TECAN d300e liquid dispenser. Cells were incubated with compounds for 120 hours at 37° C. and 5% CO2. Cell proliferation was measured using CellTiter-Glo 2.0 luciferase-based ATP detection assay (Promega, Madison, WI) at […] per well following the manufacturer's protocol. Plates were then read on a TECAN Sparks multimode microplate reader. Data was analyzed using GraphPad Prism 9 (GraphPad Software, San Diego, CA) to obtain IC50 values.
For orientation: ATP-based viability assays read luminescence as a measure of living cells.

Assay [6] concerns PC-9 cells. The experiment in a line: 5-Day CellTiter Glo (CTG) cell proliferation assay, PC-9. Format: cell-based. Particulars: Homo sapiens; PC-9 cells (d746-750 EGFR), 5-day CTG proliferation, 120 hours; read-out: PC-9 IC50. The protocol:
as §3, §4

Assay [7] deals with NCI-H1975 cells. As to the kind of experiment: 5-Day CellTiter Glo (CTG) cell proliferation assay, NCI-H1975. It counts as cell-based. Particulars: Homo sapiens; NCI-H1975 cells (L858R/T790M EGFR), 5-day CTG proliferation, 120 hours; read-out: H1975 IC50. The protocol:
as §3, §4

Sequence of EGFR (D746-750/C797S) (P00533 with tags, fused parts or gaps DEL746-750/C797S): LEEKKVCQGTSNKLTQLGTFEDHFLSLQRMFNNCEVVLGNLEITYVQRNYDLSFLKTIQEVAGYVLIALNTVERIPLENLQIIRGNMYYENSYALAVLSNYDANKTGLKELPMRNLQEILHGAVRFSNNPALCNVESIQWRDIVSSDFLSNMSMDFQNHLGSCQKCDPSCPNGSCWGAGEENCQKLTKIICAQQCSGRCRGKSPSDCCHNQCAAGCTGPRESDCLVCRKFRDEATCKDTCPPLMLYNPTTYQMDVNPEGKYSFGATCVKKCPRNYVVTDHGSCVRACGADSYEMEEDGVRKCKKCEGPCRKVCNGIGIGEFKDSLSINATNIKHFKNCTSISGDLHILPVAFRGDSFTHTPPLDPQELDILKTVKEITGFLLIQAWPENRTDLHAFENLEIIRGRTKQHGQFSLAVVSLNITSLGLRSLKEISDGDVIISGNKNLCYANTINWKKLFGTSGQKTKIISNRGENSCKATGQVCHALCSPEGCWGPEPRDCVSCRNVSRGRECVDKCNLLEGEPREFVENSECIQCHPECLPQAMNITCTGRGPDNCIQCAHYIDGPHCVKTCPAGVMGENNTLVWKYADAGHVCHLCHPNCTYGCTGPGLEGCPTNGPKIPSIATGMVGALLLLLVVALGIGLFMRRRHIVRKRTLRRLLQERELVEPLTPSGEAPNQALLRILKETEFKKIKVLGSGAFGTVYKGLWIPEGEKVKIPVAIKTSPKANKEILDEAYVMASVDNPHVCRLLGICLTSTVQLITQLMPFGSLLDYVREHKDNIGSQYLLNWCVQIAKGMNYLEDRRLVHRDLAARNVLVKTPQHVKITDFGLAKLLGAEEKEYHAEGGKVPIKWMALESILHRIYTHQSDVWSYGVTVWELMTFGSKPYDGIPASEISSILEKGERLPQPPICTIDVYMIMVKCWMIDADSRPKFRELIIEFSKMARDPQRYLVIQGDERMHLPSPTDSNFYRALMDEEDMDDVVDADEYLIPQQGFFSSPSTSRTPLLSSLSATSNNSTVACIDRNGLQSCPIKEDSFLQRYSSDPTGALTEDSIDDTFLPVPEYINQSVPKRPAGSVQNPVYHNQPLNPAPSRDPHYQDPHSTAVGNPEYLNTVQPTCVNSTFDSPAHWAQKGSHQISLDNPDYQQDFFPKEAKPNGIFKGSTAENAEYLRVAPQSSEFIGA
Sequence of EGFR (D770_N771insNPG) (P00533 with tags, fused parts or gaps INS770NPG limits assumed): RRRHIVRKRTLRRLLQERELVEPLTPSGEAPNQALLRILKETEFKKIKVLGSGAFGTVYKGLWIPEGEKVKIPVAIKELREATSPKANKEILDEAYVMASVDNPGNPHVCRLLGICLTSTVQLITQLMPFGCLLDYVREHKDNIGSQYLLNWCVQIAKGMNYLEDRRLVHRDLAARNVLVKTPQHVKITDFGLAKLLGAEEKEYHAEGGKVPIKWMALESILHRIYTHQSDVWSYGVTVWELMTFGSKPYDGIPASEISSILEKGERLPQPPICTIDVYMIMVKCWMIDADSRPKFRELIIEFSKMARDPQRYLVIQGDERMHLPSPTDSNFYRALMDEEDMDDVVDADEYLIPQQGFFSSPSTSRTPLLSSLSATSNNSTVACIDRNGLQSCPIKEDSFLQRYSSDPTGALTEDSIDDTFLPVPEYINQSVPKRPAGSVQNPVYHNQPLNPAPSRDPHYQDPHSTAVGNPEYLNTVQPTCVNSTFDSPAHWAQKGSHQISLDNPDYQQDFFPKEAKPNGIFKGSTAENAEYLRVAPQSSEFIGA
Sequence of EGFR (L858R/T790M/C797S) (P00533 25-1210 T790M/C797S/L858R): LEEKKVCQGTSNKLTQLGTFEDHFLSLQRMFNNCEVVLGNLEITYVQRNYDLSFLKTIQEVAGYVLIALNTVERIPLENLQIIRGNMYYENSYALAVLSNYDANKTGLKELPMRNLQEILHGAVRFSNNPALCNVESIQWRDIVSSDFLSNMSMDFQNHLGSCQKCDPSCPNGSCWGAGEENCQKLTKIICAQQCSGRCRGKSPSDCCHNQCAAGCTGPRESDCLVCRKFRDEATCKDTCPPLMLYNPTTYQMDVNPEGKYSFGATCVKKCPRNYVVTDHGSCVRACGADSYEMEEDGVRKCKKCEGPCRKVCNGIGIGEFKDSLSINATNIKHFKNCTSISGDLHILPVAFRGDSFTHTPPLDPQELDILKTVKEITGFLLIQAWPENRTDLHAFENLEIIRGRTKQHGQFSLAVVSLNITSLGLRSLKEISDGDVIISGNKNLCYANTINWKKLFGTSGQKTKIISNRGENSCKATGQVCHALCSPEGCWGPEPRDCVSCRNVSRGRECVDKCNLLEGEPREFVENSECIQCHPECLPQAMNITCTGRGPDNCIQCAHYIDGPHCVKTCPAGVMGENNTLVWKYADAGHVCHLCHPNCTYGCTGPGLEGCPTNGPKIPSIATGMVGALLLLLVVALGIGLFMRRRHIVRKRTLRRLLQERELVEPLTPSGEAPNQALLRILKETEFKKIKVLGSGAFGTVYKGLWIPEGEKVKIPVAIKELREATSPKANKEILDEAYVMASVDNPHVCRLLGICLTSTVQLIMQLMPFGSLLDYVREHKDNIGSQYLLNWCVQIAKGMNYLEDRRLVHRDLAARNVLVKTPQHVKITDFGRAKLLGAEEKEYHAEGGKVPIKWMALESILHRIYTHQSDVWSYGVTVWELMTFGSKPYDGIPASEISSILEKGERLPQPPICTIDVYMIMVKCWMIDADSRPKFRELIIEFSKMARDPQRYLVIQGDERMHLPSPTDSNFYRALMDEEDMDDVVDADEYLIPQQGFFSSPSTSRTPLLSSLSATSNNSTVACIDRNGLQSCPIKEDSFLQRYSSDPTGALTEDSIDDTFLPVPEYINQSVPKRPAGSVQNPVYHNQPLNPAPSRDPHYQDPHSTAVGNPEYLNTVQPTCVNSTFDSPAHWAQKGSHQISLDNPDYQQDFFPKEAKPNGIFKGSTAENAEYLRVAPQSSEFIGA
Sequence of EGFR (D746-750) (P00533 with tags, fused parts or gaps DEL746-750): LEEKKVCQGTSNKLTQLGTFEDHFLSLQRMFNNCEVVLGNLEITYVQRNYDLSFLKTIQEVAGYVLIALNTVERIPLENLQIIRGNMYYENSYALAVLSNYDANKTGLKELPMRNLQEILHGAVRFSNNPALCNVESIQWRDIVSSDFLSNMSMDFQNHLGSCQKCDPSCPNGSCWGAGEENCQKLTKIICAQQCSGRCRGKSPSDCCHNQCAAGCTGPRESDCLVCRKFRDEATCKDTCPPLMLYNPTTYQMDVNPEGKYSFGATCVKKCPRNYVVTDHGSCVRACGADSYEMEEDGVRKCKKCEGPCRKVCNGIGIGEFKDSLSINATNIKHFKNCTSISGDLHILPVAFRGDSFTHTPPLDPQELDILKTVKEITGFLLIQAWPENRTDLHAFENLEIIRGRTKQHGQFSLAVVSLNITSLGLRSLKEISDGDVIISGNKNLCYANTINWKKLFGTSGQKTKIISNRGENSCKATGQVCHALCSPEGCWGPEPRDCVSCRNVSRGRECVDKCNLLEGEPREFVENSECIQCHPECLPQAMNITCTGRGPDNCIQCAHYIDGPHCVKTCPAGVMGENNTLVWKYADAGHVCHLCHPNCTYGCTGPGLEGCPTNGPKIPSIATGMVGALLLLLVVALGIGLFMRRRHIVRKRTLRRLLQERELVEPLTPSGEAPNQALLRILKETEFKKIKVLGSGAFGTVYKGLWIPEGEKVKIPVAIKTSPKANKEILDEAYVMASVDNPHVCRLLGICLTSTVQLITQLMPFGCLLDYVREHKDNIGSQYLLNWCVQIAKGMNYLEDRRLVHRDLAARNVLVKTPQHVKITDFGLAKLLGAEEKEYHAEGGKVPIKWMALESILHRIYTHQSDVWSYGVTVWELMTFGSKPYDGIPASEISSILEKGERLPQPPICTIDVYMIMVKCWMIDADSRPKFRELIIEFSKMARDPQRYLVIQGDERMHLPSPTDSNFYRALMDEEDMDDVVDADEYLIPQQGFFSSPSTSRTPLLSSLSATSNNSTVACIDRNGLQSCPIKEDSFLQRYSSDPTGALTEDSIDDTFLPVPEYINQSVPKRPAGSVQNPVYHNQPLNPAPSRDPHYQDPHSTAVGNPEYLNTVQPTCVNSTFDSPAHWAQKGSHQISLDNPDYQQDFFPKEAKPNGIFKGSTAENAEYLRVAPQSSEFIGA

The IC50 is the concentration that inhibits the measured activity by half. For `CCOc1nn(CCO)c2c1/C=C/c1n[nH]c3cnc(cc13)-c1cnn(C)c1O[C@@H](C)CN(CC)C2` [Ex. 34, 2-[(10S,17E)-16-ethoxy-12-ethyl-8,10-dimethyl-2,8,10,11,12,13-hexahydro-14H-5,3-(azenometheno)tripyrazolo[3,4-f:3′,4′-j:4″,3″-n][1,4]oxazacyclopentadecin-14-yl]ethan-1-ol], the IC50 in assay [1] amounted to 0.11 nM; in assay [2] it was 0.28 nM; in assay [3], 0.31 nM; in assay [4], 0.12 nM; in assay [5], 0.39 nM; in assay [6], 4.22 nM. For the same compound, the 50% inhibitory concentration (IC50) in assay [7] is 1.75 nM.
On to `Cc1nn(C)c2c1-c1cc3c(n[nH]c3cn1)/C=C/c1c(OCC#N)nn(CCO)c1CN(C)C[C@@H](C)O2` [Ex. 42, {[(10R,17E)-14-(2-hydroxyethyl)-6,8,10,12-tetramethyl-2,10,11,12,13,14-hexahydro-8H-5,3-(azenometheno)tripyrazolo[3,4-f:3′,4′-j:4″,3″-n][1,4]oxazacyclopentadecin-16-yl]oxy}acetonitrile], for which the half-maximal inhibitory concentration (IC50) in assay [1] came out at 0.35 nM; in assay [2] it was 0.56 nM; in assay [3] it was 0.83 nM; in assay [4], 0.29 nM.
On the same counts, the results for `Cc1nn(C)c2c1-c1cc3c(n[nH]c3cn1)/C=C/c1c(OCC#N)nn(CCO)c1CN1CCC[C@@H]1CO2` [Ex. 43, {[(8aR,19E)-3-(2-hydroxyethyl)-11,13-dimethyl-3,4,7,8,8a,9,11,17-octahydro-6H-14,16-(azenometheno)tripyrazolo[3,4-f:3′,4′-j:4″,3″-n]pyrrolo[2,1-c][1,4]oxazacyclopentadecin-1-yl]oxy}acetonitrile] are 0.18 nM, 0.16 nM, 0.23 nM and 0.09 nM.
In the case of `Cc1nn([C@@H](C)CO)c2c1/C=C/c1n[nH]c3cnc(cc13)-c1c(C)nn(C)c1O[C@@H](C)CN(C)C2` [Ex. 46, (2S)-2-[(10S,17E)-6,8,10,12,16-pentamethyl-2,8,10,11,12,13-hexahydro-14H-5,3-(azenometheno)tripyrazolo[3,4-f:3′,4′-j:4″,3″-n][1,4]oxazacyclopentadecin-14-yl]propan-1-ol], the 50% inhibitory concentration (IC50) in assay [1] was 0.36 nM; in assay [2] it was 0.23 nM; in assay [3] it was 0.4 nM; in assay [4] it was 0.15 nM.
As to `Cc1nn(C)c2c1-c1cc3c(n[nH]c3cn1)/C=C/c1c(OCC#N)nn(CCO)c1CN(C)[C@H](C)CO2` [Ex. 49, {[(11R,17E)-14-(2-hydroxyethyl)-6,8,11,12-tetramethyl-2,10,11,12,13,14-hexahydro-8H-5,3-(azenometheno)tripyrazolo[3,4-f:3′,4′-j:4″,3″-n][1,4]oxazacyclopentadecin-16-yl]oxy}acetonitrile], the 50% inhibitory concentration (IC50) in assay [1] came out at 0.19 nM; in assay [2], 0.21 nM; in assay [3] it was 0.34 nM; in assay [4], 0.12 nM.
For the compound `Cc1nn(CCO)c2c1/C=C/c1n[nH]c3c(C)nc(cc13)-c1cnn(C)c1O[C@@H](C)CN(C)C2` [Ex. 51, 2-[(10S,17E)-8,10,12,16,20-pentamethyl-2,8,10,11,12,13-hexahydro-14H-5,3-(azenometheno)tripyrazolo[3,4-f:3′,4′-j:4″,3″-n][1,4]oxazacyclopentadecin-14-yl]ethan-1-ol], the IC50 in assay [1] amounted to 1.11 nM; in assay [2] it was 0.37 nM; in assay [3], 0.83 nM; in assay [4], 0.31 nM.
For the compound `Cc1nn(C)c2c1-c1cc3c(n[nH]c3c(C)n1)/C=C/c1c(OCC#N)nn([C@@H](C)CO)c1CN(C)C[C@H](C)O2` [Ex. 52], the IC50 in assay [1] was found to be 0.25 nM; in assay [2], 0.46 nM; in assay [3] it was 0.71 nM; in assay [4] it was 0.21 nM.
For `CCc1nn(CCO)c2c1/C=C/c1n[nH]c3cnc(cc13)-c1c(C)nn(C)c1O[C@H](C)CN(CC)C2` [Ex. 55, 2-[(10R,17E)-12,16-diethyl-6,8,10-trimethyl-2,8,10,11,12,13-hexahydro-14H-5,3-(azenometheno)tripyrazolo[3,4-f:3′,4′-j:4″,3″-n][1,4]oxazacyclopentadecin-14-yl]ethan-1-ol], the IC50 in assay [1] is 1.38 nM; in assay [2] it was 0.53 nM; in assay [3] it was 0.72 nM; in assay [4] it was 0.25 nM.
Take `CCN1CCOc2c(c(C)nn2C)-c2cc3c(n[nH]c3cn2)/C=C/c2c(OCC#N)nn([C@@H](C)CO)c2C1` [Ex. 66, {[(17E)-12-ethyl-4-[(2S)-1-hydroxypropan-2-yl]-6,8-dimethyl-2,10,11,12,13,14-hexahydro-8H-5,3-(azenometheno)tripyrazolo[3,4-f:3′,4′-j:4″,3″-n][1,4]oxazacyclopentadecin-16-yl]oxy}acetonitrile]: the IC50 stood at 0.42 nM in assay [1], 0.54 nM in assay [2], 1.04 nM in assay [3] and 0.36 nM in assay [4].
On the same counts, the results for `Cc1nn(C)c2c1-c1cc3c(n[nH]c3cn1)/C=C/c1c(OCC#N)nn([C@@H](C)CO)c1CN(C)CCO2` [Ex. 70, {[(17E)-14-[(2S)-1-hydroxypropan-2-yl]-6,8,12-trimethyl-2,10,11,12,13,14-hexahydro-8H-5,3-(azenometheno)tripyrazolo[3,4-f:3′,4′-j:4″,3″-n][1,4]oxazacyclopentadecin-16-yl]oxy}acetonitrile] are 0.41 nM, 0.31 nM, 0.69 nM and 0.16 nM.
